Bounds are passed on as bounds.

For the first assay, the system named is RSV A2 strain. Kind of assay: In vitro CPE (CytoPathic Effect) inhibition effect evaluation test, RSV type A. It counts as cell-based. The conditions noted are these: human respiratory syncytial virus, HEp-2, 96 h, read-out: EC50, inhibitory effect against RSV type A (CPE inhibition). The protocol: The test sample is diluted in advance to an appropriate concentration with DMSO, and 3-fold series of serial dilutions were prepared on a 384-well plate (0.32 μL/well). HEp-2 cells (CCL-23; ATCC) adjusted at appropriate number (2.4×10^5 cells/mL) in 2% FBS E-MEM (prepared by adding kanamycin and FBS to Eagle's Minimum Essential Medium; Invitrogen) were added at 12.5 μL/well to the 384-well plate previously aliquoted with the test samples. The RSV A2 strain was diluted to an appropriate concentration in a culture medium and added to the 384-well plate containing the test sample at 12.5 μL/well. The culture medium was added additionally to the 384-well plate, and the test was started with 50 μL/well. Control wells were prepared with only virus-free culture medium. The plate was incubated in a 5% CO2 incubator at 37° C. for 4 days, and the plate was then placed at room temperature for 30 minutes. CellTiter-Glo (registered trademark) 2.0 assay (Promega) was added at 15 μL/well, mixed for 30 seconds, and the plate was placed for approximately 1 hour. The luminescent signal was then measured by EnVision (PerkinElmer). The inhibitory effect of the test agents on RSV-induced CPE was calculated as 0% and 100% inhibition rate for each sample concentration based on the level of remaining viable cells by CellTiter-Glo (registered trademark) 2.0, with the EC50 value for each compound calculated by nonlinear regression as the concentration that inhibits RSV-induced CPE by 50%. In the case of evaluation against RSV type B, RSV B (Wash/18537 strain) was infected in the same manner as the type A, cultured for 5 days, and quantitated in the same manner as for the A2 strain.
In general terms: Cytopathic effects are the visible damage that an infection or toxin causes in cultured cells.
The term EC50 denotes the concentration needed to bring the measured effect to its halfway point. As for `O=C(NC1(C(=O)O)C2CC3CC(C2)CC1C3)c1cnc(N2C(=O)C3(C=CCC3)c3cc(OC4CCN(c5ncccn5)CC4)ccc32)nc1C(F)(F)F` (racemic) [Compound I-269], the EC50 was determined as 0.0013 µM.

Staying with this assay, now noted: human respiratory syncytial virus; inhibitory effect against RSV type A (RSV A2 strain), HEp-2 cells, CPE inhibition; read-out: EC50.
As for `O=C(NC(C(=O)O)C1CCCCC1)c1cnc(N2CCc3cc(OC4CCN(c5ncccn5)CC4)ccc32)nc1C(F)(F)F` (racemic) [Compound I-50], the EC50 lay within 0.01 to 0.1 µM.

As to `O=C(NC1(C(=O)O)CCCCC1)c1cnc(N2CCc3cc(OCC4CN(CC(F)(F)F)CCO4)ccc32)nc1C(F)(F)F` (racemic) [Compound I-58], the half-maximal effective concentration (EC50) fell in the range of 0.01 to 0.1 µM. For the compound `O=C(NC1(C(=O)O)CCCCC1)c1cnc(N2CCc3cc(OCC4CN(c5ncccn5)CCO4)ccc32)nc1C(F)(F)F` (racemic) [Compound I-66], the EC50 is 0.01 to 0.1 µM. Take `NC(=O)C1CC1c1ccc2c(c1)CCN2c1ncc(C(=O)NC2(C(=O)O)C3CC4CC(C3)CC2C4)c(C(F)(F)F)n1` (racemic) [Compound I-215]: the EC50 was 0.01 to 0.1 µM. Regarding `CNC(=O)C1CC1c1ccc2c(c1)CCN2c1ncc(C(=O)NC2(C(=O)O)C3CC4CC(C3)CC2C4)c(C(F)(F)F)n1` (racemic) [Compound I-216], the 50% effective concentration (EC50) was in the range of 0.01 to 0.1 µM. With `O=C(NC1(C(=O)O)C2CC3CC(C2)CC1C3)c1cnc(-c2cn(C3CCC(F)(F)CC3)c3ccc(OC4CCCN(C5COC5)C4)cc23)nc1C(F)(F)F` (racemic) [Compound I-233], the EC50 was in the range of 0.01 to 0.1 µM.

Consider `O=C(NC1(C(=O)O)C2CC3CC(C2)CC1C3)c1ccc(-c2cn(C3CCC(F)(F)CC3)c3cc(OC4CCCN(C5COC5)C4)ccc23)nc1C(F)(F)F` (racemic) [Compound I-235], for which the EC50 was below 0.01 µM. As for `O=C(NC1(C(=O)O)C2CC3CC(C2)CC1C3)c1cnc(N2CC3(C=CCC3)c3cc(OC4CCN(c5ncccn5)CC4)ccc32)nc1C(F)(F)F` (racemic) [Compound I-243], the EC50 was below 0.01 µM.

Consider `CC1(C)CCCC(NC(=O)c2cnc(-c3cn(C4CCC(F)(F)CC4)c4cc(OC5CCN(c6ncccn6)CC5)ccc34)nc2C(F)(F)F)(C(=O)O)C1` (racemic) [Compound I-262], for which the EC50 was below 0.01 µM.

On to `CC(C)(C)C(NC(=O)c1cnc(-c2cn(C3CCC(F)(F)CC3)c3cc(OC4CCN(c5ncccn5)CC4)ccc23)nc1C(F)(F)F)C(=O)O` (racemic) [Compound I-263], for which the EC50 was below 0.01 µM. With `O=C(NC1(C(=O)O)C2CC3CC(C2)CC1C3)c1ccc(-c2cn(CC3CC3(F)F)c3cc(OC4CCN(c5ncccn5)CC4)ccc23)nc1C(F)(F)F` (racemic) [Compound I-266], the EC50 was below 0.01 µM. In the case of `CC(NC(=O)c1cnc(-c2cn(C3CCC(F)(F)CC3)c3cc(OC4CCN(c5ncccn5)CC4)ccc23)nc1C(F)(F)F)(C(=O)O)C1CCCCC1` (racemic) [Compound I-267], the EC50 is below 0.01 µM. The same measure, in the same setting: the result for `CC(C)(C)CC(NC(=O)c1cnc(-c2cn(C3CCC(F)(F)CC3)c3cc(OC4CCN(c5ncccn5)CC4)ccc23)nc1C(F)(F)F)C(=O)O` (racemic) [Compound I-271] reads below 0.01 µM. On the same count and under the same terms, the result for `O=C(NC1(C(=O)O)C2CC3CC(C2)CC1C3)c1cnc(-c2cn(C3CCC(F)(F)CC3)c3cc(OC4CCN(C5CCOC5)CC4)ccc23)nc1C(F)(F)F` (racemic) [Compound I-277] reads below 0.01 µM; that for `O=C(NC1(C(=O)O)C2CC3CC(C2)CC1C3)c1ccc(-c2cn(C3CCCOC3)c3cc(OC4CCN(c5ncccn5)CC4)ccc23)nc1C(F)(F)F` (racemic) [Compound I-367], below 0.01 µM; that for `O=C(NC1(C(=O)O)C2CC3CC(C2)CC1C3)c1cnc(-c2cn(C3CCOC3)c3cc(OC4CCN(c5ncc(F)cn5)CC4)ccc23)nc1C(F)(F)F` (racemic) [Compound I-410], below 0.01 µM. Take `CC(N1CCC(Oc2ccc3c(-c4ncc(C(=O)NC5(C(=O)O)C6CC7CC(C6)CC5C7)c(C(F)(F)F)n4)cn(C4CCC(F)(F)CC4)c3c2)CC1)C(F)(F)F` (racemic) [Compound I-449]: the EC50 is below 0.01 µM. The same measure, in the same setting: with `O=C(NC1(C(=O)O)C2CC3CC(C2)CC1C3)c1cnc(N2CC3(CCOCC3)c3cc(OCC(O)C(F)(F)F)ccc32)nc1C(F)(F)F` (racemic) [Compound I-458] the figure was below 0.01 µM; with `O=C(NC1(C(=O)O)C2CC3CC(C2)CC1C3)c1cnc(-c2cn(C3CCC(F)(F)C3)c3cc(OC4CCN(c5ncc(F)cn5)CC4)ccc23)nc1C(F)(F)F` (racemic) [Compound I-470], below 0.01 µM. Regarding `COc1cccc(COc2ccc3c(ccn3-c3ncc(C(=O)NC4(C(=O)O)CC5CCC4C5)c(C(F)(F)F)n3)c2)c1` (single isomer, unassigned) [Compound I-18], the EC50 was below 0.01 µM. Turning to `COC12CC3CC(C1)C(NC(=O)c1cnc(N4CC5(CCOCC5)c5cc(OC6CCN(c7ncccn7)CC6)ccc54)nc1C(F)(F)F)(C(=O)O)C(C3)C2` (single isomer, unassigned) [Compound I-210], the EC50 was below 0.01 µM.

Regarding `CC1CC(Oc2ccc3c(-c4ncc(C(=O)NC5(C(=O)O)C6CC7CC(C6)CC5C7)c(C(F)(F)F)n4)cn(C4CCC(F)(F)CC4)c3c2)CCN1c1ncc(F)cn1` (single isomer, unassigned) [Compound I-385], the EC50 was below 0.01 µM.

Regarding `CC1CN(c2ncccn2)CCC1Oc1ccc2c(-c3ncc(C(=O)NC4(C(=O)O)C5CC6CC(C5)CC4C6)c(C(F)(F)F)n3)cn(C3CCC(F)(F)CC3)c2c1` (single isomer, unassigned) [Compound I-391], the EC50 was below 0.01 µM. On the same count and under the same terms, with `O=C(NC1(C(=O)O)C2CC3CC(C2)CC1C3)c1cnc(N2c3cc(F)c(OC4CCN(c5ncccn5)CC4)cc3C3CCCCCC32)nc1C(F)(F)F` (single isomer, unassigned) [Compound I-395] the figure was below 0.01 µM.

Still in this assay, the particulars now being: inhibitory effect against RSV type A (RSV A2 strain), HEp-2 cells, CPE inhibition; read-out: EC50.
Turning to `O=C(NC1(C(=O)O)C2CC3CC(C2)CC1C3)c1cnc(N2CC3(CCN(C4COC4)C3)c3cc(OC4CCN(c5ncccn5)CC4)ccc32)nc1C(F)(F)F` (racemic) [Compound I-333], the EC50 was below 0.01 µM. Same read-out and setting: with `O=C(NC1(C(=O)O)C2CC3CC(C2)CC1C3)c1cnc(N2CC3(CCN(c4ncc(F)cn4)C3)c3cc(OC4CCN(c5ncccn5)CC4)ccc32)nc1C(F)(F)F` (racemic) [Compound I-361] the figure was below 0.01 µM; with `CC(=O)N1CCC2(C1)CN(c1ncc(C(=O)NC3(C(=O)O)C4CC5CC(C4)CC3C5)c(C(F)(F)F)n1)c1ccc(OC3CCN(c4ncccn4)CC3)cc12` (racemic) [Compound I-362], below 0.01 µM. As for `CCNC(=O)N1CCC2(C1)CN(c1ncc(C(=O)NC3(C(=O)O)C4CC5CC(C4)CC3C5)c(C(F)(F)F)n1)c1ccc(OC3CCN(c4ncccn4)CC3)cc12` (racemic) [Compound I-364], the EC50 is below 0.01 µM.

With `COc1cccc(COc2ccc3c(c2)CCN3c2ncc(C(=O)NC3(C(=O)O)CC4CCC3C4)c(C(F)(F)F)n2)c1` (single isomer, unassigned) [Compound I-17], the EC50 is below 0.01 µM.

As for `COc1cccc(COc2ccc3c(c2)CCN3c2ncc(C(=O)NC3(C(=O)O)CC4CCC3C4)c(C(F)(F)F)n2)c1` (single isomer, unassigned) [Compound I-19], the EC50 is below 0.01 µM. On to `O=C(NC1(C(=O)O)C2CC3CC1CC(O)(C3)C2)c1cnc(N2CCc3cc(OCCC4CCOCC4)ccc32)nc1C(F)(F)F` (single isomer, unassigned) [Compound I-97], for which the EC50 was 0.01 to 0.1 µM. The same measure, in the same setting: with `Cn1ncc2c1CCC(Oc1ccc3c(c1)C1(CCOCC1)CN3c1ncc(C(=O)NC3(C(=O)O)C4CC5CC(C4)CC3C5)c(C(F)(F)F)n1)C2` (single isomer, unassigned) [Compound I-191] the figure was below 0.01 µM; with `COC12CC3CC(C1)C(NC(=O)c1cnc(N4CC5(CCOCC5)c5cc(OC6CCN(c7ncccn7)CC6)ccc54)nc1C(F)(F)F)(C(=O)O)C(C3)C2` (single isomer, unassigned) [Compound I-211], below 0.01 µM; with `O=C(NC1(C(=O)O)C2CC3CC(C2)CC1C3)c1cnc(N2CC3(CC4CCC(C3)O4)c3cc(OC4CCN(c5ncccn5)CC4)ccc32)nc1C(F)(F)F` (single isomer, unassigned) [Compound I-300], below 0.01 µM. On the same count and under the same terms, with `CC1CC(Oc2ccc3c(-c4ncc(C(=O)NC5(C(=O)O)C6CC7CC(C6)CC5C7)c(C(F)(F)F)n4)cn(C4CCC(F)(F)CC4)c3c2)CCN1c1ncc(F)cn1` (single isomer, unassigned) [Compound I-386] the figure was below 0.01 µM. On to `CC1CN(c2ncccn2)CCC1Oc1ccc2c(-c3ncc(C(=O)NC4(C(=O)O)C5CC6CC(C5)CC4C6)c(C(F)(F)F)n3)cn(C3CCC(F)(F)CC3)c2c1` (single isomer, unassigned) [Compound I-392], for which the EC50 was below 0.01 µM.

With `O=C(NC1(C(=O)O)C2CC3CC(C2)CC1C3)c1ccc(-c2cn(C3CCC(F)CC3)c3cc(OC4CCN(c5ncc(F)cn5)CC4)ccc23)nc1C(F)(F)F` (single isomer, unassigned) [Compound I-398], the concentration giving a half-maximal response (EC50) was below 0.01 µM. Turning to `CC1CN(c2ncccn2)CCC1Oc1ccc2c(-c3ncc(C(=O)NC4(C(=O)O)C5CC6CC(C5)CC4C6)c(C(F)(F)F)n3)cn(C3CCC(F)(F)CC3)c2c1` (single isomer, unassigned) [Compound I-404], the EC50 is below 0.01 µM.

Values taken from patent publication US12528790B2, “Amide derivative having antiviral activity” (Shionogi & Co., Ltd., priority 2020, dated 2026).
